Laboratory results: patent publication US20220143148A1, “COMPOSITIONS AND METHODS FOR MODULATING CGRP SIGNALING TO REGULATE INTESTINAL INNATE LYMPHOID CELLS” (The Broad Institute, Inc., priority 2019, published 2022)

Columns and labels:
intestinal KLRG1+ ILC2s = test: Bulk ATAC-seq of intestinal KLRG1+ ILC2s stimulated in vitro; assay type: cell-based, mouse; settings: α-CGRP stimulation alone
Procedure: ILC2 culture. Sort-purified intestinal KLRG1^+ ILC2s were incubated in RPMI supplemented with 10% FCS, 10 mM Hepes, 1 mM sodium pyruvate, 10% FBS, 80 μm 2-mercaptoethanol, 2 mM glutamine, 100 U/ml penicillin, […] streptomycin, 100 ng/ml IL-2 and 100 ng/ml IL-7 in 96-well round bottom plate at 37° C. and 5% CO2. If indicated, the culture was supplemented with 100 ng/ml IL-25. For the in vitro proliferation assay, cells from different mice were pooled and labeled with CellTrace Violet, and then cultured at 1,000-1,500 cells per well with 10 μg/ml α-CGRP for 60 hours. When indicated, 10 μM forskolin or 1 μM SQ 22, 536 in DMSO was supplied and cells were cultured for 40 hours. […]
Bulk ATAC-seq. […] The library was amplified for 11 cycles, purified with Zymo DNA clean (Zymo Research), and sequenced on an Illumina Next-seq platform using 75 cycle Nextseq 500 high output V2 kit (Read 1: 38 cycles, Index 1: 8 cycles, Index 2: 8 cycles, Read 2: 38 cycles).
The reads were trimmed and aligned to the mouse reference genome (mm9) with Bowtie2 aligner (Langmead and Salzberg, 2012) using the option-X2000. Then, Applicants discarded reads with alignment quality<Q30, improperly paired, mapped to the unmapped contigs, chrY, and mitochondria. […] Peak summits were extended by ±250 bp, and fragment counts in peaks were calculated using chromVAR (Schep et al., 2017) (version: 1.1.1). […]

intestinal ILC2s = test: OVA food allergy model with intragastric α-CGRP; assay type: in vivo, mouse; settings: α-CGRP intragastrically together with OVA, pre-sensitized mice; P=0.02, P=0.009, t-test
Text: Intraperitoneal administration of α-CGRP impaired IL-25-induced expansion of KLRG1^+ ILC2s (FIGS. 5B and 12A), consistent with the in vitro results. Recent work has shown that intestinal KLRG1^+ ILC2s can migrate to mesenteric lymph nodes (mLNs) and other tissues during inflammation via sphingosine 1-phosphate (S1P)-mediated chemotaxis (Huang et al., 2018). To determine whether α-CGRP primarily impacts intestinal or mLN ILC2s, Applicants relied on the fact that intestinal GATA3^+ ILC2s are generally phenotypically KLRG1^+ST2^− (data not shown), whereas mLN ILC2s are mainly ST2^+ at steady state (FIG. 5C). IL-25 administration increased the frequency of both KLRG1^+ST2^− inflammatory ILC2s and ST2^+ ILC2s in mLNs (FIGS. 5C-E and 12B). […] Thus, α-CGRP preferentially regulates the response of intestinal KLRG1^+ST2^− ILC2s. […] Taken together, α-CGRP antagonized expansion of intestinal KLRG1^+ ILC2s in two different type 2 inflammatory models.
To induce allergic reaction to OVA, 6 to 7 weeks old mice were sensitized twice, two weeks apart, with 50 μg of OVA plus 1 mg of aluminum potassium sulfate adjuvant via intraperitoneal injection. Two weeks later, mice were orally administered with 50 mg of OVA on every other day for a total of five times. […]
Flow cytometry and cell sorting. […] Flow cytometry was performed on Cytoflex (Beckman Coulter) and analyzed with FlowJo software. […]

α-CGRP: neuropeptide alpha-calcitonin gene-related peptide, encoded by exon 5 of Calca; administered as peptide
regions of increased chromatin accessibility (intestinal KLRG1+ ILC2s): enriched for gene loci involved in the adenylate cyclase pathway
expansion of intestinal ILC2s in a food allergy model (intestinal ILC2s): significantly suppressed
